Laboratory results as given in paper PMC9424684, “Z1456467176 alleviates gouty arthritis by allosterically modulating P2X7R to inhibit NLRP3 inflammasome activation” (Frontiers in Pharmacology, 2022).
Structures can show the parent of a compound that is named as a salt.

Molecular target: T1, hP2X7R (purinergic receptor P2X7, P2X7R) (Homo sapiens, UniProt Q99572)
T1 construct: gene P2RX7; homotrimer
T1 sequence (Q99572 1-595): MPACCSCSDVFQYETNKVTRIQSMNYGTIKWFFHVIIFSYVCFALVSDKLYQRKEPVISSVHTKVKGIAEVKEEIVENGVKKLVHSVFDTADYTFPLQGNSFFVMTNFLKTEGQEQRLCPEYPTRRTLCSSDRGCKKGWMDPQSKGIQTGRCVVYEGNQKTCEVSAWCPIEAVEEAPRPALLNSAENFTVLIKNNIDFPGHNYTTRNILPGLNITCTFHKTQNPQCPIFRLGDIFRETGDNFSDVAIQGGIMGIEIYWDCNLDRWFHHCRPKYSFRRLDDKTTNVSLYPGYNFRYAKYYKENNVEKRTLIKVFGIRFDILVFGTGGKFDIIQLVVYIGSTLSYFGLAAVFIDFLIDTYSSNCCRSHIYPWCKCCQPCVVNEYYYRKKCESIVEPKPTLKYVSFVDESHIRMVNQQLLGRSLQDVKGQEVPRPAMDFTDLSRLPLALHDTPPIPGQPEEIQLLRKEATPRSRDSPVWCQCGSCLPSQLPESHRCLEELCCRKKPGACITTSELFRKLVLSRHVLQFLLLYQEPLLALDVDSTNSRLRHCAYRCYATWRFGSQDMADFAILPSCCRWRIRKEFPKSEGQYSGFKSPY
Assay: ethidium bromide uptake (pore formation), flow cytometry, HEK-293T cells
Type: cell-based
Settings: read-out: EB uptake IC50

IC50: 3.42 µM
Structure (SMILES): CC(Cc1cccc(C(F)(F)F)c1)C(=O)Nc1cccc(S(=O)(=O)NCCN)c1 (stereo not shown) [Z1456467176, N-{3-[(2-aminoethyl)sulfamoyl]phenyl}-2-methyl-3-[3-(trifluoromethyl)phenyl] propanamide hydrochloride]
